The values that follow are results of earlier work, collected in patent publication US10332616B2, “Movable type method applied to protein-ligand binding” (University of Florida Research Foundation, Inc., priority 2013, dated 2019).

Molecules are shown by their SMILES. Like-named read-outs stand apart in the source and are kept apart here.

For this series the following is noted: experimental solvation free energy.
Setting [1] is: test set with 372 neutral compounds.

Take `CCN` [Compound 0103eth]: the “Exp. ΔGsolv” value (neutral compounds test set) is -4.5 kcal/mol.

As for `CNC` [Compound 0104dim], the “Exp. ΔGsolv” value (neutral compounds test set) is -4.29 kcal/mol. As for `C1CNC1` [Compound 0105aze], under “neutral compounds test set”, the “Exp. ΔGsolv” value is -5.56 kcal/mol. For the molecule `CN(C)C` [Compound 0107tri], the “Exp. ΔGsolv” value (neutral compounds test set) is -3.23 kcal/mol. For `C1CCNC1` [Compound 0108pyr], the “Exp. ΔGsolv” value (neutral compounds test set) is -5.48 kcal/mol.

Turning to `C1CNCCN1` [Compound 0109pip], where the note is “neutral compounds test set”, the “Exp. ΔGsolv” value is -7.4 kcal/mol.

Take `CCCCN` [Compound 0110but]: the “Exp. ΔGsolv” value (neutral compounds test set) is -4.29 kcal/mol.

Take `CN1CCNCC1` [Compound 0112Nme]: under “neutral compounds test set”, the “Exp. ΔGsolv” value was -7.77 kcal/mol. On to `CCCCCN` [Compound 0113pen], for which the “Exp. ΔGsolv” value (neutral compounds test set) is -4.1 kcal/mol. `CN1CCN(C)CC1` [Compound 0114NNd]: the “Exp. ΔGsolv” value (neutral compounds test set) was -7.58 kcal/mol. Regarding `CCCNCCC` [Compound 0115dip], where the note is “neutral compounds test set”, the “Exp. ΔGsolv” value was -3.66 kcal/mol. Consider `c1ccncc1` [Compound 0116pyr], for which the “Exp. ΔGsolv” value under setting [1] is -4.7 kcal/mol. As to `Cc1cnccn1` [Compound 0117met], the “Exp. ΔGsolv” value under setting [1] was -5.57 kcal/mol. With `Nc1ccccc1` [Compound 0118ani], the “Exp. ΔGsolv” value (neutral compounds test set) is -5.49 kcal/mol.

Regarding `Cc1ccccn1` [Compound 0119met], under setting [1], the “Exp. ΔGsolv” value is -4.63 kcal/mol.

As for `Cc1cccnc1` [Compound 0120met], the “Exp. ΔGsolv” value under setting [1] was -4.77 kcal/mol. In the case of `Cc1ccncc1` [Compound 0121met], under setting [1], the “Exp. ΔGsolv” value is -4.94 kcal/mol. Consider `CNc1ccccc1` [Compound 0122Nme], for which the “Exp. ΔGsolv” value under setting [1] is -4.68 kcal/mol. Turning to `Cc1ccnc(C)c1` [Compound 0123dim], the “Exp. ΔGsolv” value under setting [1] is -4.86 kcal/mol. With `Cc1cccc(C)n1` [Compound 0125dim], under setting [1], the “Exp. ΔGsolv” value is -4.6 kcal/mol.

Turning to `CC#N` [Compound 0126eth], under setting [1], the “Exp. ΔGsolv” value was -3.89 kcal/mol. In the case of `CCC#N` [Compound 0127pro], the “Exp. ΔGsolv” value under setting [1] is -3.85 kcal/mol. For the molecule `CCCC#N` [Compound 0128butb], the “Exp. ΔGsolv” value under setting [1] is -3.64 kcal/mol. As to `N#Cc1ccccc1` [Compound 0129ben], under setting [1], the “Exp. ΔGsolv” value is -4.1 kcal/mol. With `CC[N+](=O)[O-]` [Compound 0130nit], the “Exp. ΔGsolv” value under setting [1] was -3.71 kcal/mol. `CCC[N+](=O)[O-]` [Compound 0131nit]: the “Exp. ΔGsolv” value under setting [1] is -3.34 kcal/mol.

Turning to `CC(C)[N+](=O)[O-]` [Compound 0132nit], under setting [1], the “Exp. ΔGsolv” value was -3.14 kcal/mol. As for `CCCC[N+](=O)[O-]` [Compound 0133nit], under setting [1], the “Exp. ΔGsolv” value is -3.08 kcal/mol. `Cc1ccccc1[N+](=O)[O-]` [Compound 0135met]: the “Exp. ΔGsolv” value under setting [1] was -3.59 kcal/mol. For `CS` [Compound 0136met], under “neutral compounds test set”, the “Exp. ΔGsolv” value is -1.24 kcal/mol. On to `CCS` [Compound 0137ethb], for which, for the setting “neutral compounds test set”, the “Exp. ΔGsolv” value was -1.3 kcal/mol.

On to `CCCS` [Compound 0138pro], for which the “Exp. ΔGsolv” value (neutral compounds test set) was -1.05 kcal/mol. For `Sc1ccccc1` [Compound 0139thi], the “Exp. ΔGsolv” value (neutral compounds test set) was -2.55 kcal/mol.

Consider `CSC` [Compound 0140dim], for which, where the note is “neutral compounds test set”, the “Exp. ΔGsolv” value was -1.54 kcal/mol. `CCSCC` [Compound 0142die]: the “Exp. ΔGsolv” value (neutral compounds test set) was -1.43 kcal/mol.

In the case of `CCCSCCC` [Compound 0143dip], where the note is “neutral compounds test set”, the “Exp. ΔGsolv” value was -1.27 kcal/mol. With `CSc1ccccc1` [Compound 0144thi], the “Exp. ΔGsolv” value (neutral compounds test set) was -2.73 kcal/mol.

For `C=CCO` [Compound 0145pro], the “Exp. ΔGsolv” value (neutral compounds test set) was -5.08 kcal/mol. As to `COCCO` [Compound 0146met], the “Exp. ΔGsolv” value (neutral compounds test set) was -6.77 kcal/mol. For the molecule `COCCN` [Compound 0147met], the “Exp. ΔGsolv” value (neutral compounds test set) is -6.55 kcal/mol. With `C#CC=C` [Compound 0148but], the “Exp. ΔGsolv” value under setting [1] is 0.04 kcal/mol. For `C1COCCN1` [Compound 0149mor], under “neutral compounds test set”, the “Exp. ΔGsolv” value was -7.17 kcal/mol. Turning to `O=Cc1cccc(O)c1` [Compound 0150mhy], the “Exp. ΔGsolv” value (neutral compounds test set) is -9.51 kcal/mol. Turning to `O=Cc1ccc(O)cc1` [Compound 0151phy], the “Exp. ΔGsolv” value (neutral compounds test set) was -10.48 kcal/mol. On to `CC(F)F` [Compound 0154dif], for which the “Exp. ΔGsolv” value under setting [1] is -0.11 kcal/mol.

`ClCCl` [Compound 0161dic]: the “Exp. ΔGsolv” value under setting [1] was -1.36 kcal/mol. `ClC(Cl)Cl` [Compound 0162tri]: the “Exp. ΔGsolv” value under setting [1] was -1.07 kcal/mol. For `CCCl` [Compound 0163chl], the “Exp. ΔGsolv” value under setting [1] was -0.63 kcal/mol.

`CC(Cl)(Cl)Cl` [Compound 0165tri]: the “Exp. ΔGsolv” value under setting [1] is -0.25 kcal/mol. Regarding `ClCC(Cl)Cl` [Compound 0166tri], the “Exp. ΔGsolv” value under setting [1] is -1.95 kcal/mol. Turning to `CCCCl` [Compound 0167chla], the “Exp. ΔGsolv” value under setting [1] was -0.27 kcal/mol. As to `CC(C)Cl` [Compound 0168chl], the “Exp. ΔGsolv” value under setting [1] is -0.25 kcal/mol. Turning to `C=CCl` [Compound 0169chl], under setting [1], the “Exp. ΔGsolv” value was -0.59 kcal/mol. With `C=CCCl` [Compound 0170chl], the “Exp. ΔGsolv” value under setting [1] was -0.57 kcal/mol. `Cl/C=C\Cl` [Compound 0171Zdi]: under setting [1], the “Exp. ΔGsolv” value was -1.17 kcal/mol. Consider `Cl/C=C/Cl` [Compound 0172Edi], for which the “Exp. ΔGsolv” value under setting [1] is -0.76 kcal/mol. Regarding `ClC=C(Cl)Cl` [Compound 0173tri], the “Exp. ΔGsolv” value under setting [1] is -0.39 kcal/mol. With `Clc1ccccc1` [Compound 0174chl], the “Exp. ΔGsolv” value under setting [1] is -1.12 kcal/mol. Consider `Clc1ccccc1Cl` [Compound 0175odi], for which the “Exp. ΔGsolv” value under setting [1] was -1.36 kcal/mol.

With `Clc1ccc(Cl)cc1` [Compound 0176pdi], the “Exp. ΔGsolv” value under setting [1] is -1.01 kcal/mol. As to `CBr` [Compound 0177bro], the “Exp. ΔGsolv” value under setting [1] was -0.82 kcal/mol. Take `BrCBr` [Compound 0178dib]: the “Exp. ΔGsolv” value under setting [1] was -2.11 kcal/mol. With `BrC(Br)Br` [Compound 0179tri], under setting [1], the “Exp. ΔGsolv” value is -1.98 kcal/mol. Regarding `CCBr` [Compound 0180bro], the “Exp. ΔGsolv” value under setting [1] is -0.7 kcal/mol. Consider `CCCBr` [Compound 0182bro], for which the “Exp. ΔGsolv” value under setting [1] is -0.56 kcal/mol.

With `CC(C)Br` [Compound 0183bro], the “Exp. ΔGsolv” value under setting [1] is -0.48 kcal/mol.

Take `CCCCBr` [Compound 0184bro]: the “Exp. ΔGsolv” value under setting [1] is -0.41 kcal/mol.

In the case of `CCCCCBr` [Compound 0185bro], under setting [1], the “Exp. ΔGsolv” value is -0.08 kcal/mol. For the molecule `Brc1ccccc1` [Compound 0186bro], the “Exp. ΔGsolv” value under setting [1] is -1.46 kcal/mol. Take `Brc1ccc(Br)cc1` [Compound 0187dib]: the “Exp. ΔGsolv” value under setting [1] was -2.3 kcal/mol. On to `FC(F)(F)Br` [Compound 0197bro], for which the “Exp. ΔGsolv” value under setting [1] is recorded as 1.79 kcal/mol. Turning to `FCCl` [Compound 0198chl], the “Exp. ΔGsolv” value under setting [1] is -0.77 kcal/mol. With `FC(F)Cl` [Compound 0199chl], the “Exp. ΔGsolv” value under setting [1] is -0.5 kcal/mol.

`FC(F)(F)F` [Compound 0200tet]: the “Exp. ΔGsolv” value under setting [1] is 3.16 kcal/mol.

As for `FC(F)(F)C(Cl)Br` (stereo not drawn) [Compound 0201bro], the “Exp. ΔGsolv” value under setting [1] is -0.13 kcal/mol.

As to `ClCCBr` [Compound 0202bro], the “Exp. ΔGsolv” value under setting [1] is -1.95 kcal/mol. Regarding `FC(Br)C(F)(F)F` (stereo not drawn) [Compound 0203bro], the “Exp. ΔGsolv” value under setting [1] is reported as 0.52 kcal/mol.

On to `ClC(Cl)=C(Cl)Cl` [Compound 0204tet], for which the “Exp. ΔGsolv” value under setting [1] is given as 0.05 kcal/mol. `FC(F)(F)CCl` [Compound 0205chl]: the “Exp. ΔGsolv” value under setting [1] was 0.06 kcal/mol. In the case of `FC(F)(Cl)C(F)(Cl)Cl` [Compound 0206tri], under setting [1], the “Exp. ΔGsolv” value is 1.77 kcal/mol. On to `OCC(F)(F)F` [Compound 0207tri], for which, for the setting “neutral compounds test set”, the “Exp. ΔGsolv” value is -4.31 kcal/mol. For the molecule `FC(F)OC(Cl)C(F)(F)F` (stereo not drawn) [Compound 0209chl], where the note is “neutral compounds test set”, the “Exp. ΔGsolv” value is 0.11 kcal/mol. In the case of `CC(O)C(F)(F)F` (stereo not drawn) [Compound 0211tri], the “Exp. ΔGsolv” value (neutral compounds test set) is -4.16 kcal/mol. In the case of `OC(C(F)(F)F)C(F)(F)F` [Compound 0212hex], under “neutral compounds test set”, the “Exp. ΔGsolv” value is -3.77 kcal/mol. In the case of `C=COCC(F)(F)F` [Compound 0214tri], the “Exp. ΔGsolv” value (neutral compounds test set) was -0.12 kcal/mol. Take `COP(=O)(OC)OC` [Compound 0220tri]: the “Exp. ΔGsolv” value (neutral compounds test set) is -8.7 kcal/mol. Regarding `CCOP(=O)(OCC)OCC` [Compound 0221tri], the “Exp. ΔGsolv” value (neutral compounds test set) was -7.8 kcal/mol. In the case of `CCSSCC` [Compound 0223die], under “neutral compounds test set”, the “Exp. ΔGsolv” value is -1.63 kcal/mol. `C1CCNCC1` [Compound 0225pipa]: where the note is “neutral compounds test set”, the “Exp. ΔGsolv” value was -5.11 kcal/mol.

In the case of `CN1CCOCC1` [Compound 0227Nme], the “Exp. ΔGsolv” value (neutral compounds test set) is -6.34 kcal/mol. On to `CN` [Compound 0228met], for which the “Exp. ΔGsolv” value (neutral compounds test set) is -4.56 kcal/mol. `CCc1cnccn1` [Compound 0230eth]: the “Exp. ΔGsolv” value under setting [1] was -5.51 kcal/mol. As to `CC(N)=O` [Compound 0233ethb], the “Exp. ΔGsolv” value (neutral compounds test set) was -9.71 kcal/mol.

`CNC(C)=O` [Compound 0234ENmb]: the “Exp. ΔGsolv” value (neutral compounds test set) was -10 kcal/mol. `CNC(C)=O` [Compound 0235ZNmb]: the “Exp. ΔGsolv” value (neutral compounds test set) was -10 kcal/mol. `CCCCCCCC=O` [Compound 0237oct]: the “Exp. ΔGsolv” value (neutral compounds test set) was -2.29 kcal/mol.

For `CCCCCCCC(=O)OC` [Compound 0238met], the “Exp. ΔGsolv” value (neutral compounds test set) is -2.04 kcal/mol. Regarding `COC(=O)c1ccccc1` [Compound 0240met], where the note is “neutral compounds test set”, the “Exp. ΔGsolv” value is -3.91 kcal/mol. For the molecule `CC(C)OC(C)C` [Compound 0242dii], the “Exp. ΔGsolv” value (neutral compounds test set) was -0.53 kcal/mol. For the molecule `C1CCOCC1` [Compound 0244tet], where the note is “neutral compounds test set”, the “Exp. ΔGsolv” value was -3.12 kcal/mol. On to `c1ccsc1` [Compound 0245thi], for which the “Exp. ΔGsolv” value (neutral compounds test set) is -1.42 kcal/mol. For `CCOc1ccccc1` [Compound 0246eth], under “neutral compounds test set”, the “Exp. ΔGsolv” value is -2.22 kcal/mol. With `CN(C)C(=O)Nc1ccccc1` [Compound 0401amia], the “Exp. ΔGsolv” value (neutral compounds test set) was -9.63 kcal/mol. As to `Cn1cnc2c(N)ncnc21` [Compound 0402adn], the “Exp. ΔGsolv” value under setting [1] is -13.6 kcal/mol. With `FC(F)(F)C(F)(F)F` [Compound 0405hex], the “Exp. ΔGsolv” value under setting [1] is recorded as 3.94 kcal/mol. As to `FC(F)(F)C(F)(F)C(F)(F)F` [Compound 0406oct], the “Exp. ΔGsolv” value under setting [1] was 4.28 kcal/mol. `ClCC(Cl)(Cl)Cl` [Compound 0407tet]: under setting [1], the “Exp. ΔGsolv” value is -1.15 kcal/mol.

For the molecule `ClC(Cl)(Cl)C(Cl)(Cl)Cl` [Compound 0408hex], under setting [1], the “Exp. ΔGsolv” value is -1.4 kcal/mol.
